In article PMC10067601, “Identification of a peptide ligand for human ALDH3A1 through peptide phage display: Prediction and characterization of protein interaction sites and inhibition of ALDH3A1 enzymatic activity” (Frontiers in Molecular Biosciences, 2023):
“Also recorded” adds a separate entry of the source.

Target: T1, human recombinant ALDH3A1 (Homo sapiens, UniProt P30838)
T1 construct: 6xHis (C); made in house; host or cells: E. coli, with chaperone co-expression (pG-KJE8 plasmid)
T1 sequence (P30838 1-453): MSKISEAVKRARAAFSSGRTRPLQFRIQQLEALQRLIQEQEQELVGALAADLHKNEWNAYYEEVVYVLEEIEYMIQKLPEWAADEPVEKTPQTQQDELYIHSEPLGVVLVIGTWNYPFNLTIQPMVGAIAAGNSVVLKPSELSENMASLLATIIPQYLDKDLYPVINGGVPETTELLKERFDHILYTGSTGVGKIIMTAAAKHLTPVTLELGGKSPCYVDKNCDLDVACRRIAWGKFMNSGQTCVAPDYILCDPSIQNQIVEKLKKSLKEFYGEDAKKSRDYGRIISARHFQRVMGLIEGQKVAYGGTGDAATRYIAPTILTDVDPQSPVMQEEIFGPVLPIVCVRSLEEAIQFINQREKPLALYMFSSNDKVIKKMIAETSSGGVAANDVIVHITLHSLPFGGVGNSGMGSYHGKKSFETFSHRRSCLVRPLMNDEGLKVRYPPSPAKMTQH
Assay: ALDH3A1 enzymatic assay, benzaldehyde oxidation
Assay type: biochemical
Settings: for Enzymatic Activity, AVERAGE %: mean of triplicates, STDEV % in r34
Experimental: The ability of ALDH3A1 to oxidize benzaldehyde in the presence of P1 was estimated by monitoring the production of NADH as described earlier with minor modifications ([Voulgaridou et al., 2013]). Human recombinant ALDH3A1 was combined with P1 and diluted in Milli-Q water, at 1:1,000. The final reaction was placed in a 0.5 mL quartz cuvette containing 50 mM Tris-HCl pH 8.5, 50 mM 2-Mercaptoethanol, 1.5 mM […], 20 nM ALDH3A1, 20 μM P1, and 1 mM Benzaldehyde. The reaction was initiated by the addition of the benzaldehyde substrate and was monitored at 340 nm for 5 min using a spectrophotometer (Libra S22, Biochrom Ltd, Cambridge, United Kingdom). In the case of CB29, the final reaction contained 40 μM CB29. Enzymatic activity was calculated as dOD/dT∗molarextinctioncoeiffcient∗pathcorrection∗enzyme^′sconcentrationinfinalreaction where, dT = minutes, molar extinction coefficient = 6220 M^-1/cm, path correction = 1 cm.
All experiments were conducted in triplicates and presented as % of the control’s enzymatic activity. As a control, the final reaction contained the respective Milli-Q water volume without P1 or CB29.
At least three independent experiments were performed for each condition tested. The values are expressed as the mean ± standard deviation (SD). Statistical analysis was performed with Graph Pad Prism software (version 9.4.1) (Graph Pad Inc., La Jolla, CA, United States). For all assays, statistical differences between groups were evaluated either by Student’s t-test or ANOVA, for multiple comparisons, followed by Dunnett’s or Tukey’s test. A level of p < 0.01 was considered statistically significant.

[1] = 20 μM P1 (n = 4) or 40 μM CB29 (n = 3)

With “WPTYVSPFRSPP [P1, …, prevailing 12-mer phage display peptide, synthesised by Genecust]” the “Enzymatic activity, % of control, AVERAGE of experiments” value (20 μM P1 (4 experiments) or 40 μM CB29 (3 experiments), 1 mM benzaldehyde, 20 nM ALDH3A1, pH 8.5, 340 nm, 5 min) was 53.6795%, the “25% Percentile, % of control activity” value [1] was 48.44 and the “75% Percentile, % of control activity” value [1] was 60.33. For the same sequence, the “Lower 95% CI of mean, % of control activity” value [1] was 43.07, the “Maximum, % of control activity” value [1] was 63.01 and the “Mean, % of control activity” value [1] was 53.68. For the same sequence, the “Median, % of control activity” value [1] was 52.27, the “Minimum, % of control activity” value [1] was 47.18 and the “Upper 95% CI of mean, % of control activity” value [1] was 64.29. The “Reduction in hALDH3A1 activity against benzaldehyde” value (20 μM P1, 20 nM ALDH3A1, 1 mM benzaldehyde, 50 mM Tris-HCl pH 8.5, 50 mM 2-mercaptoethanol, NADH at 340 nm, 5 min, vs control) was roughly 50%, the “Enzymatic activity, % of control (Mean%)” value (20 μM P1, P1 Experiment 1, mean of n = 3, 1 mM benzaldehyde, 20 nM ALDH3A1, pH 8.5, 340 nm) was 52.2857% and the “Enzymatic activity, % of control (Mean%)” value (20 μM P1, P1 Experiment 2, mean of n = 3, 1 mM benzaldehyde, 20 nM ALDH3A1, pH 8.5, 340 nm) was 63.0078%. The “Enzymatic activity, % of control (Mean%)” value (20 μM P1, fourth experiment line of Sheet6, mean of n = 3, 1 mM benzaldehyde, 20 nM ALDH3A1, pH 8.5, 340 nm) was 47.1765%, the “Enzymatic activity, % of control (Mean%)” value (20 μM P1, third experiment line of Sheet6, mean of n = 3, 1 mM benzaldehyde, 20 nM ALDH3A1, pH 8.5, 340 nm) was 52.2481% and the “Effectiveness of inhibition compared with CB29” value (20 μM P1 vs 40 μM CB29, benzaldehyde) was “comparable to the inhibition capacity of the known hALD3A1 inhibitor CB29; also recorded: comparable with the inhibition caused by the CB29 molecule”. The “95,00% CI of diff, control vs. compound” value (Dunnett's multiple comparisons, 20 μM P1 or 40 μM CB29) was 37,24 to 55,40, the “Mean Diff, control vs. compound” value (Dunnett's multiple comparisons, 20 μM P1 or 40 μM CB29, % of control activity) was 46.32 and the “Enzymatic Activity, AVERAGE %” value (Experiment 3, 20μM P1, % of control (control = 100)) was 52.2481%. For the same sequence, the “Enzymatic Activity, AVERAGE of triplicates” value (Experiment 3, 20μM P1, mean of triplicates, STDEV in r31) was 7.566 µmol/min/mg, the “Enzymatic Activity, AVERAGE %” value (Experiment 4, 20μM P1, % of control (control = 100)) was 47.1765% and the “Enzymatic Activity, AVERAGE of triplicates” value (Experiment 4, 20μM P1, mean of triplicates, STDEV in r31) was 9.945 µmol/min/mg. The “Enzymatic Activity, AVERAGE of triplicates” value (P1 Experiment 1, 20 μM, mean of n = 3) was 7.9584 µmol/min/mg and the “Enzymatic Activity, AVERAGE of triplicates” value (P1 Experiment 2, 20 μM, mean of n = 3) was 11.9878 µmol/min/mg.
